The target in data set [1] is PARP1 (Homo sapiens, UniProt P09874). Kind of data set: PARP1 inhibition assay. The class given is biochemical. The conditions noted are these: tested in duplicate, average.
The target in data set [2] is recombinant BRD4(BD1 + BD2) (Homo sapiens, UniProt O60885). Description: BRD4 inhibition assay. The class given is binding.
Data set [3] relates to MDA-MB-468 cells. Kind of data set: Cell viability assay. As to conditions: Homo sapiens, MDA-MB-468, 24 h, read-out: Anti-proliferative activity (IC50). The class given is cell-based, human.
Data set [4] has as its system MDA-MB-468 cells. Description: Annexin V-FITC/PI apoptosis assay. The conditions noted are these: 1, 3.3 and 10 μmol/L. The class given is cell-based, human.
Data set [5] in a line: Pharmacokinetic study, oral. The data set is classed as in vivo, Sprague–Dawley rats.
For data set [6], the system named is protein expression in MDA-MB-468 cells. Description: Western blot analysis. The class given is cell-based, human.
Data set [7] deals with MDA-MB-468 cells. Kind of data set: Colony formation assay. The class given is cell-based, human. As to conditions: compared with DMSO-treated control.
For data set [8], the system named is MCF-7 cells. Description: Annexin V-FITC/PI apoptosis assay. The data set is classed as cell-based, human.
Data set [9] in a line: HE staining of major organs of xenograft mice. The class given is in vivo, nude mice (BALB/c). The conditions noted are these: after 19d treatment, all groups of both xenograft models.
Data set [10] concerns BRD4 and PARP1 in MDA-MB-468 tumor tissues. Kind of data set: IHC staining of tumor tissue. The data set is classed as in vivo, nude mice (BALB/c). As to conditions: 40 mg/kg, compared with control group.
Data set [11] concerns BRD4 and PARP1 in MCF-7 tumor tissues. Description: IHC staining of tumor tissue. The data set is classed as in vivo, nude mice (BALB/c). The conditions noted are these: 19d treatment groups.
The subject of data set [12] is MCF-7 tumor xenograft. Kind of data set: MCF-7 breast cancer xenograft model.
Data set [13] concerns MDA-MB-468 tumor xenograft. Description: MDA-MB-468 breast cancer xenograft model.
[14] abbreviates: male, Sprague-Dawley, rat, plasma, po, 10 mg/kg.

Sequence of PARP1 (P09874 whole entry): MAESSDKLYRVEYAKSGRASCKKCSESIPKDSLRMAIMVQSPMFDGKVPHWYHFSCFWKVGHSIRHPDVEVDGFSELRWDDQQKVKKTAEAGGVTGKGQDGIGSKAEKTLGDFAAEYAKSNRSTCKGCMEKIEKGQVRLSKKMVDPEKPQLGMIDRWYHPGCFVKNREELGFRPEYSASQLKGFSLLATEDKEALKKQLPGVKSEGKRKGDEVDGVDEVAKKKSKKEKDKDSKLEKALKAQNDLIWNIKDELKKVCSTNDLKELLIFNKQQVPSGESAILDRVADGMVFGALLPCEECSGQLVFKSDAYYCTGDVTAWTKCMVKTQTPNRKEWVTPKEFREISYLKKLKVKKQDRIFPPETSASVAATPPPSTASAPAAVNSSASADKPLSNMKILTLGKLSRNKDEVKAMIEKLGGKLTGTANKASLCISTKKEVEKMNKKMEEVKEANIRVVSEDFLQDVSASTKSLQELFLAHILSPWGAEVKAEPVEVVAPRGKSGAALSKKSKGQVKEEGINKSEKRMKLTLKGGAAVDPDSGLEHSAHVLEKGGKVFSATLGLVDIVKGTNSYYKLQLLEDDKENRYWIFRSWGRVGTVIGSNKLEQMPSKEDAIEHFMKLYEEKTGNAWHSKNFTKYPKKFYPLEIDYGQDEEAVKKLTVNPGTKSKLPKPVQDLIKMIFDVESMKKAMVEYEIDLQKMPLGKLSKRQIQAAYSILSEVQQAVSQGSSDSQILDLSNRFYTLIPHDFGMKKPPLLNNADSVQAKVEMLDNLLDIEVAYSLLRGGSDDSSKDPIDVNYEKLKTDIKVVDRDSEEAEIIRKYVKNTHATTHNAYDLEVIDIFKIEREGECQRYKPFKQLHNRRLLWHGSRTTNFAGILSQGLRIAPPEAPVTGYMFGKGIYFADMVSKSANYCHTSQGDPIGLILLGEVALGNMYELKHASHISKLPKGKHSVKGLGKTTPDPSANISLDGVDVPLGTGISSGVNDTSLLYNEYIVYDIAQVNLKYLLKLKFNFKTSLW

By IC50 is commonly meant the concentration that gives 50% inhibition. What is called AUC(0-t) is the area under the concentration-time curve up to a stated or last time point. A higher AUC(0-t) goes with high exposure. For orientation: MRT inf means a mean duration of stay, worked out from the concentration-time curve. On to `COc1cc(OC)c2c(=O)[nH]c(-c3ccc(OCCOc4ccccc4C(N)=O)cc3)nc2c1` [Compound 19d, 2-(2-(4-(5,7-Dimethoxy-4-oxo-3,4-dihydroquinazolin-2-yl)phenoxy)ethoxy)benzamide], for which the inhibition at 1 µM turned out to be 37% in data set [1] (read-out: Inhibition rate PARP1, 1 μmol/L) and 69% in [2] (read-out: Inhibition rate BRD4, 1 μmol/L, tested in duplicate, average). Besides, the inhibition at 10 µM turned out to be 88% in data set [1] (read-out: Inhibition rate PARP1, 10 μmol/L) and 92% in [2] (read-out: Inhibition rate BRD4, 10 μmol/L, tested in duplicate, average). Besides, the “improved efficacy against BRD4 than RVX-208” value in [2] (ratio of BRD4 IC50 values) is above 30 fold. In addition, the half-maximal inhibitory concentration (IC50) in data set [3] came out at 3.4 ± 1.1 µM. Also, the apoptosis induction entry is “induced apoptosis in a dose-dependent manner” in [4] and “no significant changes” in data set [8]. Besides, in data set [5] (SD rats, p.o. 10 mg/kg, n = 3, mean ± SD), the “AUC0−∞” value turned out to be 144.72 ± 25.51 ng·h/mL. This compound also returned an AUC(0-t) in data set [5] (setting [14]) of 114 ± 15.8 ng·h/mL. In addition, in data set [5] (setting [14]), the mean residence time (MRT inf) is 5.35 ± 0.44 h. In addition, in [6] (2 μmol/L, 24 h), the PAR expression result is reported as “effective downregulation”. For the same compound, in data set [6] (2 μmol/L, 24 h), the c-Myc expression result is listed as “higher c-Myc inhibition efficiency than RVX-208”. In data set [6] (1, 3.3 and 10 μmol/L), the “BAX and active form of caspase-3 expression” value was “increased”. For the same compound, in [6] (1, 3.3 and 10 μmol/L), the BCL-2 expression entry is “remarkably downregulated”. Besides, the “expression of c-Myc and PAR” value in data set [6] (1, 3.3 and 10 μmol/L, 24 h) was “decreased the expression of c-Myc and PAR in a dose-dependent manner”. In addition, in data set [7], the colony counts entry is “remarkably decreased the colony counts”. The “histological changes in major organs (HE)” value in data set [9] is “no visible histological changed”. Further, the “expression levels of BRD4 and PARP1 in tumor tissues” value was “effectively suppressed” in data set [10] and “slightly downregulated” in data set [11]. Also, in [12] (80 mg/kg oral, once a day), the TGI rate was found to be 48.3%. In [12] (20, 40 and 80 mg/kg oral), the “toxicity (body weight) of the dosages used” value is recorded as “no apparent toxicity”. Also, the “tumor growth inhibition (TGI)” value in data set [13] (80 mg/kg oral, once a day) was found to be 55.3%. Moreover, the “body weight change and death during treatment” value in data set [13] (20, 40 and 80 mg/kg oral) was “slight body weight change and no death of mice”.

The record behind these values is article PMC7838034 (Acta Pharmaceutica Sinica. B, 2020).
